Laboratory results reported in patent US20240425512A1, “NITROGEN-CONTAINING HETEROCYCLIC COMPOUND, PHARMACEUTICAL COMPOSITION THEREOF AND APPLICATION THEREOF” (280 Bio, Inc., priority 2023, published 2024).
Where two headings read alike, the source gives them in different places.

What was measured:
[1] = test system: LS513 colon cancer cell with KRAS G12D mutation; assay: Proliferation inhibition on RAS cell lines measured by CTG, LS513; type: cell-based; details: LS513 cells, incubated for 6 days
From the text: NCI-H358 is a human non-small cell lung cancer cell line with KRAS G12C mutation; AGS is a gastric cancer cell line with KRAS G12D mutation; SW620 is a colon cancer cell with KRAS G12V mutation; NCI-H460 is a non-small cell lung cancer cell with KRAS Q61H mutation; MKN1 is a wild-type gastric cancer cell with KRAS-amplified; LS513 is a colon cancer cell with KRAS G12D mutation; LoVo is a colon cancer cell with KRAS G13D mutation; NCI-H441 is a lung cancer cell with KRAS G12V mutation, and Capan-2 is a pancreatic cancer cell with KRAS G12V mutation.
(§1) The proliferation inhibitory effect of the compounds on various mutations was evaluated by determining the proliferation inhibitory activity of the compounds on these cell lines.
(§2) The assay was conducted on either 384-well plates or 96-well plates. The procedures are as follows:
(§3) The cell suspensions were added to 384- or 96-well plates (384-well plate: 50 μL; 96-well plate: 100 μL) except for peripheral wells. The plates were placed in a carbon dioxide incubator overnight. NCI-H358, AGS, NCI-H460, MKN-1, LS513, LoVo, and NCI-H441 were placed in a 5%, 370 carbon dioxide incubator overnight, and SW620 was placed in a 0%, 370 carbon dioxide incubator overnight. The HPD300 micro-dosing instrument was used to add the corresponding concentration of compound to each well (9-10 concentration gradients of compound were obtained by 3-fold dilution). Cell plates were incubated in a carbon dioxide incubator for 5-6 days. NCI-H358, AGS, NCI-H460 and MKN-1 were incubated at 5%, 37° incubator and SW620 was incubated at 0%, 370 incubator. On the day of plate measurement, the 384- or 96-well plates were first equilibrated at room temperature for 10-30 min, then CellTiter Glo reagent (384-well plate: 25 μL; 96-well plate: 100 μL) was added to the 384- or 96-well plate, shaken for 10 min away from light, and incubated for 10 min. The plates were placed into Victor NIVO or ENVIDION reader plates, and XLFit was utilized to plot the pharmacodynamic inhibition curve and calculate the IC50 value. “IC50>10 μM” is denoted by “*”, “10 μM≥IC50≥1 μM” is denoted by “**”, and “1 μM≥IC50>100 nM” is denoted by “***”, “IC50<100 nM” is denoted by “****”

[2] = test system: GP2D cells; assay: Proliferation inhibition on RAS cell lines measured by CTG, GP2D; type: cell-based; details: CellTiter Glo
Method: as §1, §2, §3

[3] = Homo sapiens, LS-513, 144 h, Table 3, CellTiter Glo, read-out: IC50 (LS513^k)
[4] = 144 h, Table 3, incubated for 6 days, read-out: IC50 (GP2D^l)
[5] = Homo sapiens, LS-513, 144 h, Table 1, CellTiter Glo, read-out: IC50 (LS513^f)
[6] = Homo sapiens, LS-513, 144 h, Table 2, CellTiter Glo, read-out: IC50 (LS513^f)
[7] = 144 h, Table 2, incubated for 6 days, read-out: IC50 (GP2D^j)
[8] = Table 3, CellTiter Glo, read-out: IC50 (LS513^k)
[9] = Table 3, incubated for 6 days, read-out: IC50 (GP2D^l)

| SMILES | IC50 [1, 6] [µM] | IC50 [2, 4] [µM] | also measured |
| --- | --- | --- | --- |
| C#Cc1c(F)ccc2cc(OC(=O)N3CCC[C@H]3COC)cc(-c3ncc4c(N5CCCCCN5)nc(OC[C@@]56CCCN5C[C@H](F)C6)nc4c3F)c12 [Compound 74] |  | < 0.1 | IC50 [1, 3]: < 0.1 µM |
| C#Cc1c(F)ccc2cc(O)cc(-c3ncc4c(N5CCCCCN5)nc(OC[C@@]56CC[C@H](c7cc(F)c(C(F)(F)F)c(F)c7)N5C[C@H](F)C6)nc4c3F)c12 [Compound 117] |  | 0.1 to 1 | IC50 [1, 3]: 0.1 to 1 µM |
| C#Cc1c(F)ccc2cc(OC(=O)N(C)C)cc(-c3ncc4c(N5CCCCCN5)nc(OC[C@@]56CCCN5C[C@H](F)C6)nc4c3F)c12 [Compound 89] |  | 0.1 to 1 |  |
| C#Cc1c(F)ccc2cc(O)cc(-c3ncc4c(N5CCCCCN5)nc(OCC56CCCN5CC(=C(F)F)C6)nc4c3F)c12 (stereo not drawn) [Compound 22] |  |  | IC50 [1, 5]: < 0.1 µM |
| C#Cc1c(F)ccc2cc(O)cc(-c3ncc4c(N5CCCCCN5)nc(OCC5(C)CN(C)CCC5C(F)F)nc4c3F)c12 (stereo not drawn) [Compound 149] |  | < 0.1 | IC50 [1, 3]: < 0.1 µM |
| N#Cc1c(N)sc2c(F)ccc(-c3c(C(F)(F)F)cc4c(N5CCCCCN5)nc(OC[C@@]56CCCN5C[C@H](F)C6)nc4c3F)c12 [Compound 48] | < 0.1 |  |  |
| C#Cc1c(F)ccc2cc(O)cc(-c3ncc4c(N5CCCCCN5)nc(OCC5(C)C(C)CCN5CC=C)nc4c3F)c12 (stereo not drawn) [Compound 148] |  | < 0.1 |  |
| C#Cc1c(F)ccc2cc(OC(=O)NCCOCCOC)cc(-c3ncc4c(N5CCCCCN5)nc(OC[C@@]56CCCN5C[C@H](F)C6)nc4c3F)c12 [Compound 92] |  | < 0.1 | IC50 [1, 3]: < 0.1 µM |
| C#Cc1c(F)ccc2cc(O)cc(-c3ncc4c(N5CCCCN5)nc(OC[C@@]56CCCN5C[C@H](F)C6)nc4c3F)c12 [Compound 16] |  |  | IC50 ([1]; Homo sapiens, LS-513, 144 h, Table 1, numeric value, read-out: IC50 (LS513^f)): 0.0118 µM; IC50 [1, 5]: < 0.1 µM |
| C#Cc1c(F)ccc2cc(OC(=O)N(C)CCNC)cc(-c3ncc4c(N5CCCCCN5)nc(OC[C@@]56CCCN5C[C@H](F)C6)nc4c3F)c12 [Compound 153] |  | < 0.1 | IC50 [1, 3]: < 0.1 µM |
| CCc1c(F)ccc2c(F)c(O)cc(-c3ncc4c(N5CCCCCN5)nc(OC[C@@]56CCCN5C[C@H](F)C6)nc4c3F)c12 [Compound 125] |  |  | IC50 [1, 8]: 0.1 to 1 µM; IC50 [2, 9]: 0.1 to 1 µM |
| Oc1cc(-c2ncc3c(N4CCCCCN4)nc(OC[C@@]45CCCN4C[C@H](F)C5)nc3c2F)c2c(F)c(F)ccc2c1 [Compound 66] |  |  | IC50 [2, 7]: < 0.1 µM |
| C#Cc1c(F)ccc2cc(O)cc(-c3ncc4c(N5CCCCCN5)nc(OCC5(C)CN(C)CCC5CF)nc4c3F)c12 (stereo not drawn) [Compound 150] |  | < 0.1 | IC50 [1, 3]: < 0.1 µM |
| C#Cc1c(F)ccc2cc(O)cc(-c3ncc4c(N5CCCCCN5C(=O)OC(C)(C)C)nc(OCC5(CN(C)C)CC5)nc4c3F)c12 [Compound 14] |  |  | IC50 [1, 5]: 0.1 to 1 µM |
| C#Cc1c(F)ccc2cc(OC(=O)NCCCCCCCCCCCC)cc(-c3ncc4c(N5CCCCCN5)nc(OC[C@@]56CCCN5C[C@H](F)C6)nc4c3F)c12 [Compound 133] |  | < 0.1 | IC50 [1, 3]: < 0.1 µM |
| CCc1c(F)ccc2cc(O)cc(N3CCc4c(nc(OC[C@@]56CCCN5C[C@H](F)C6)nc4N4CCCCCN4)C3)c12 [Compound 51] | < 0.1 |  |  |

| SMILES | IC50 [1, 6] [µM] | IC50 [2, 4] [µM] | also measured |
| --- | --- | --- | --- |
| C#Cc1c(F)ccc2cc(OC(=O)N[C@H](C(=O)O)[C@@H](C)CC)cc(-c3ncc4c(N5CCCCCN5)nc(OC[C@@]56CCCN5C[C@H](F)C6)nc4c3F)c12 [Compound 96] |  |  | IC50 [1, 8]: < 0.1 µM; IC50 [2, 9]: < 0.1 µM |
| C#Cc1c(F)ccc2cc(OC(=O)NCCCC)cc(-c3ncc4c(N5CCCCCN5)nc(OC[C@@]56CCCN5C[C@H](F)C6)nc4c3F)c12 [Compound 94] |  | < 0.1 | IC50 [1, 3]: < 0.1 µM |
| Nc1cc(Cl)c(C(F)(F)F)c(-c2ncc3c(N4CCCCCN4)nc(OC[C@@]45CCCN4C[C@H](F)C5)nc3c2F)c1 [Compound 81] | < 0.1 |  | IC50 [2, 7]: 0.1 to 1 µM |
| C#Cc1c(F)ccc2cc(O)cc(-c3ncc4c(N5CCCCCN5)nc(OCC5(CN6CCC(OCC(=O)N[C@H](C(=O)N7C[C@H](O)C[C@H]7C(=O)N[C@@H](C)c7ccc(-c8scnc8C)cc7)C(C)(C)C)CC6)CC5)nc4c3F)c12 [Compound 108] |  |  | IC50 [2, 9]: < 0.1 µM |
| N#Cc1c(N)sc2c(F)ccc(-c3c(Cl)cc4c(N5CCCCCN5)nc(OC[C@@]56CCCN5C[C@H](F)C6)nc4c3F)c12 [Compound 42] | 0.1 to 1 |  |  |
| C#Cc1c(F)ccc2cc(O)cc(-c3ncc4c(N5CCCCCN5)nc(OCC5CN(c6nccn6C)C5)nc4c3F)c12 [Compound 138] |  | 0.1 to 1 |  |
| C#Cc1c(F)ccc2cc(O)cc(-c3c(C(F)(F)F)cc4c(N5CCCCCN5)nc(OC[C@@]56CCCN5C[C@H](F)C6)nc4c3F)c12 [Compound 54] |  |  | IC50 [2, 7]: 0.1 to 1 µM |
| C#Cc1c(F)ccc2cc(O)cc(-c3ncc4c(N5CCCCCN5C(=O)OC(C)(C)C)nc(OC[C@@]56CCCN5C[C@H](F)C6)nc4c3F)c12 [Compound 12] |  |  | IC50 [1, 5]: < 0.1 µM |
| C#Cc1c(F)ccc2cc(O)cc(-c3ncc4c(N5CCCCCN5)nc(OCC5(CN(C)C)CC5)nc4c3F)c12 [Compound 13] |  |  | IC50 ([1]; Table 1, CellTiter Glo, read-out: IC50 (LS513^f)): < 0.1 µM |
| C#Cc1c(F)ccc2cc(OC(=O)N3CCCC3)cc(-c3ncc4c(N5CCCCCN5)nc(OC[C@@]56CCCN5C[C@H](F)C6)nc4c3F)c12 [Compound 111] |  | < 0.1 |  |
| C#Cc1c(F)ccc2cc(O)cc(-c3ncc4c(N5CC=CCN5)nc(OC[C@@]56CCCN5C[C@H](F)C6)nc4c3F)c12 [Compound 76] |  |  | IC50 [2, 7]: 0.1 to 1 µM |
| C=Cc1cc2c(N3CCCCCN3)nc(OC[C@@]34CCCN3C[C@H](F)C4)nc2c(F)c1-c1ccc(F)c2sc(N)c(C#N)c12 [Compound 43] | < 0.1 |  |  |
| CCc1cc2c(N3CCCCCN3)nc(OC[C@@]34CCCN3C[C@H](F)C4)nc2c(F)c1-c1ccc(F)c2sc(N)c(C#N)c12 [Compound 44] | < 0.1 |  |  |
| C#Cc1c(F)ccc2cc(O)cc(-c3ncc4c(N5CCCCCN5)nc(OCC5(CN6CCN(c7cc(F)c(F)c(F)c7)CC6)CC5)nc4c3F)c12 [Compound 130] |  |  | IC50 [2, 9]: 0.1 to 1 µM |
| C#Cc1c(F)ccc2cc(O)cc(-c3ncc4c(N5CCCCCN5)nc(OCC56CCCN5C/C(=C/F)C6)nc4c3F)c12 (stereo not drawn) [Compound 21] |  |  | IC50 [1, 5]: < 0.1 µM |

Second part, led by results:

| IC50 [1, 6] [µM] | SMILES | IC50 [2, 4] [µM] | also measured |
| --- | --- | --- | --- |
| 0.1 to 1 | C#Cc1c(F)ccc2cc(O)cc(-c3ncc4c(N5CCCCCN5)nc(OCC5(CN6CCN(C)CC6)CC5)nc4c3F)c12 [Compound 52] |  |  |
| 0.1 to 1 | C#Cc1c(F)ccc2cc(O)cc(-c3ncc4c(N5CCCCCN5)nc(OC[C@]56CCCN5[C@H](c5cc(F)c(F)c(F)c5)CC6)nc4c3F)c12 [Compound 85] |  | IC50 [2, 7]: 0.1 to 1 µM |
| < 0.1 | C#Cc1c(F)ccc2cc(O)cc(-c3ncc4c(N5CCCCCN5)nc(OCC56CCCN5C(COc5cc(C(F)(F)F)ncn5)CC6)nc4c3F)c12 (stereo not drawn) [Compound 60] |  | IC50 [2, 7]: < 0.1 µM |
| 0.1 to 1 | C#Cc1c(F)ccc2cc(O)cc(-c3ncc4c(N5CCCCCN5)nc(OCC5(CN6CCCC6)CC5)nc4c3F)c12 [Compound 53] |  |  |
| < 0.1 | CCc1c(F)ccc2cc(O)cc(-c3ncc4c(N5CCCCCN5)nc(OCC5(CN6CCOCC6)CC5)nc4c3F)c12 [Compound 46] |  |  |
| < 0.1 | C#Cc1c(F)ccc2cc(O)cc(-c3ncc4c(N5CCCCCN5)nc(OCC5(CN6CCCCC6)CC5)nc4c3F)c12 [Compound 47] |  |  |
| 1 to 10 | C#Cc1c(F)ccc2cc(O)cc(-c3ncc4c(N5CCNCCN5)nc(OC[C@@]56CCCN5C[C@H](F)C6)nc4c3F)c12 [Compound 40] |  |  |
| 0.1 to 1 | C#Cc1c(F)ccc2cc(O)cc(-c3ncc4c(N5CCCCCN5C(=O)OCC)nc(OC[C@@]56CCCN5C[C@H](F)C6)nc4c3F)c12 [Compound 20] |  |  |
| < 0.1 | C#Cc1c(F)ccc2cc(O)cc(-c3ncc4c(N5CCCC(F)(F)CN5)nc(OC[C@@]56CCCN5C[C@H](F)C6)nc4c3F)c12 [Compound 56] |  |  |
